According to patent US8680146B2, “Organic compounds” (Novartis AG, priority 2008, dated 2014):

Assay: Solubility study of FTY720 salts in various solvents
Assay type: physicochemical
Settings: approx. values at 25° C.
Protocol: The solubilities of various salts were assessed and are given in the table below (approx. values at 25° C., g/100 ml %): […]

SMILES	Solubility in 0.1N HCl	Solubility in Acetone	Solubility in Ethanol	Solubility in Ethylacetate	Solubility in Isopropanol	Solubility in Octanol	Solubility in Water	Solubility in pH 6.88 phosphate buffer
CCCCCCCCc1ccc(CCC(N)(CO)CO)cc1 [Free Base, 2-amino-2-[2-(4-octylphenyl)ethyl]propane-1,3-diol]	>2 g/100 ml %	0.52 g/100 ml %	3.88 g/100 ml %	0.45 g/100 ml %	2.03 g/100 ml %	1-2 g/100 ml %	0.018 g/100 ml %	<0.001 g/100 ml %
CCCCCCCCc1ccc(CCC(N)(CO)CO)cc1.Cl [Hydrochloride, 2-amino-2-[2-(4-octylphenyl)ethyl]propane-1,3-diol hydrochloride salt]	>2 g/100 ml %	0.08 g/100 ml %	>7.94 g/100 ml %	0.03 g/100 ml %	4.51 g/100 ml %	1-2 g/100 ml %	>10 g/100 ml %	<0.001 g/100 ml %
